The text below walks through data of patent publication US6153756A, “Soluble prodrugs of paclitaxel” (priority 1997, dated 2000).

The nature of data set [1]: Aqueous stability of 2'-MPM in H2O and 0.2M NaCl. The class given is physicochemical. As to the method: Aqueous Stability: The stability of the prodrug in H2 O and 0.2M NaCl was examined at both room temperature and under refrigerated conditions. Samples in H2 O (0.54 mg in 2 ml) and NaCl (0.57 mg in 2 ml) at room temperature were examined at two minute time intervals (0 through 12 minutes), 2 hours and 24 hours. […] At 4° C. the product concentration was unchanged at 24 and 48 hours but decreased to 90% after 72 hours. […] At 4° C. the product concentration was unchanged at 24 hours, was 91% at 48 hours and was 88% at 72 hours.

Data set [2] is described as follows: Water solubility of paclitaxel and of its prodrugs (general statements). The data set is classed as physicochemical. The following applies: listed advantage of the novel salts.
The nature of data set [3]: Extraction of 2'-MPM from water into CH2Cl2. The class given is physicochemical. Conditions: three samples (1.2, 1.0, 0.98 mg) in water (1 ml) stirred with CH2Cl2 (1 ml). As to the method:
Extraction: Three samples (1.2,1.0 and 0.98 mg) were dissolved in water (1 ml) and vigorously stirred with CH2 Cl2 (1 ml). The organic phase was transferred to a clean, tared vial and concentrated in vacuo. The residue was weighed and compared to the theoretical input to gauge the effectiveness of the extraction procedure. Average return for this extraction was about 44% of theoretical.

The nature of data set [4]: Solubility of 2'-MPM in deionized water. The data set is classed as physicochemical. As to the method: Solubility: Deionized water (0.5 ml) was added to three samples of the 2'-MPM (1.54 mg, 0.97 mg and 0.80 mg) and the flask sonicated for approximately one (1) minute.
Data set [5] in a line: Stability of paclitaxel 2'-methylpyridinium acetate (HPLC). The class given is physicochemical. As to the method:
The onium salt paclitaxel-2'-MPA was prepared by the method of Nicolaou et al., Angew. Chim. Int. Engl., 33:1583-1587 ([…]). A 2.40 mg/ml solution of the paclitaxel-2'-MPA was prepared by dissolving the salt (10.2 mg) in a solution of water (3.024 ml) and polyethylene glycol (1.234 ml). Samples of this solution were frozen. The frozen samples were slowly warmed to room temperature and homogenized with CH3 CN (50 μl). An aliquot (50 μl) was removed and diluted to a final volume of 200 μl with deionized H2 O and analyzed via HPLC (20 μl injection).
Analysis conditions were as follows: […]
Mobile phase: 50% MeOH/80 mM NH4 OAc

Data set [6] in a line: Stability of 2'-MPA after HPLC purification in presence of excess acetate. The class given is physicochemical. Conditions: excess acetate ion, upon concentration of HPLC effluent, to paclitaxel.
Data set [7] relates to neoplasms including breast. The following applies: several types of neoplasms including breast; cited from earlier work.
Setting [8] is: freshly prepared solution, 0.53 mg/ml in CH3CN.

Values joined by “and” are separate entries in the source; they are usually repeats but may differ in a detail not shown here. Equal entries are not always repeated. Structures can show the parent of a compound that is named as a salt. Where two headings read alike, the source gives them in different places.

On to `CC(=O)O[C@H]1C(=O)[C@@]2(C)[C@H]([C@H](OC(=O)c3ccccc3)[C@]3(O)C[C@H](OC(=O)[C@H](Oc4cccc[n+]4C)[C@@H](NC(=O)c4ccccc4)c4ccccc4)C(C)=C1C3(C)C)[C@]1(OC(C)=O)CO[C@@H]1C[C@@H]2O` [2'-MPM, Paclitaxel-2'-Methylpyridinium Mesylate], for which, in data set [1] (0.2M NaCl, 4° C., 24 hours), the product concentration entry was “unchanged”. Also, in data set [1] (0.2M NaCl, 4° C., 48 hours, read-out: product concentration), the remaining at 48 h was determined as 91%. In addition, the remaining at 72 h is 88% in data set [1] (0.2M NaCl, 4° C., read-out: product concentration); 90% in data set [1] (H2O, 4° C., read-out: product concentration); 88 to 91% in data set [1] (water, aqueous solution, 4° C., read-out: MPM salt remaining (summary statement)). Besides, the degraded at 2 h in data set [1] (0.2M NaCl, room temperature, 2 hours, read-out: drop in product concentration) fell in the range of 1 to 2%. Further, the remaining at 24 h was determined as 70% in data set [1] (0.2M NaCl, room temperature, 24 hours, read-out: product concentration) and 56% in data set [1] (H2O, room temperature, 24 hours, read-out: product concentration). Further, the Aqueous stability result in data set [1] (0.2M NaCl, room temperature, first ten minutes) is listed as “no apparent change”; in data set [1] (H2O, room temperature, 2 hours) it was “relatively unchanged”. Besides, in data set [1] (aqueous solution, 4° C.), the “stability compared with 2'-MPA salt” value was “significantly more stable than the 2'-MPA salt”. The “MPM salt remaining (summary statement)” value in data set [1] (aqueous solution, 4° C., 24 hours) was “unchanged”. The “solubility compared with paclitaxel” value in data set [2] is “much higher than for paclitaxel”. The “Average return for extraction into CH2Cl2” value in data set [3] is recorded as “about 44 % of theoretical”. Further, the “upper limit of solubility” value in data set [4] (deionized water) is “has not been attained as yet”. In addition, in data set [4] (deionized water 0.5 ml, sonicated approx. 1 min), the “Solubility: sample amount for which solution was attained” value is 0.97 mg and 0.80 mg. The “Solubility: additional water required to provide a free-flowing solution” value in data set [4] (largest sample (1.54 mg), on top of 0.5 ml deionized water) was 0.1 mL.
In the case of `CC(=O)O[C@H]1C(=O)[C@@]2(C)[C@H]([C@H](OC(=O)c3ccccc3)[C@]3(O)C[C@H](OC(=O)[C@H](Oc4cccc[n+]4C)[C@@H](NC(=O)c4ccccc4)c4ccccc4)C(C)=C1C3(C)C)[C@]1(OC(C)=O)CO[C@@H]1C[C@@H]2O` [2'-MPA, Paclitaxel 2'-Methylpyridinium Acetate], the “Paclita. % (paclitaxel in 2'-MPA sample)” value turned out to be 15% in data set [5] (4° C., 1 Hour); 9% in data set [5] (4° C., 2 Weeks); 11% in data set [5] (4° C., 6 Hours); 10% in data set [5] (4° C., 18 Hours); 9% in data set [5] (4° C., 42 Hours); 11% in data set [5] (4° C., 66 Hours). Moreover, the “Paclita. % (paclitaxel in 2'-MPA sample)” value is 14% in data set [5] (Room Temperature, 1 Hour); 14% in data set [5] (Room Temperature, 6 Hours); 17% in data set [5] (Room Temperature, 42 Hours); 13% in data set [5] (Room Temperature, 66 Hours); 15% in data set [5] (Room Temperature, 90 Hours). Also, the “Unkno. % (unknown in 2'-MPA sample)” value in data set [5] (4° C., 1 Hour) was “No peak eluted”; in data set [5] (4° C., 2 Weeks), 10%; in data set [5] (4° C., 6 Hours), 14%; in data set [5] (4° C., 18 Hours), 17%; in data set [5] (4° C., 42 Hours) it was 12%; in data set [5] (4° C., 66 Hours) it was 16%. Besides, the “Unkno. % (unknown in 2'-MPA sample)” value in data set [5] (Room Temperature, 1 Hour) is listed as 8%; in data set [5] (Room Temperature, 6 Hours), 8%; in data set [5] (Room Temperature, 42 Hours) it was 10%; in data set [5] (Room Temperature, 66 Hours) it was 8%; in data set [5] (Room Temperature, 90 Hours), 12%. In addition, the “2'-MPA peak” value in data set [5] (setting [8]) is 75%. Further, the “Paclitaxel peak in 2'-MPA sample” value in data set [5] (setting [8]) came to 15%. Moreover, in data set [5] (setting [8]), the “Unknown peak in 2'-MPA sample” value is given as 10%. Also, the remaining at 1 h in data set [5] (water/polyethylene glycol, 4° C., 1 Hour, read-out: 2'-MPA %) came to 85%; in data set [5] (water/polyethylene glycol, Room Temperature, 1 Hour, read-out: 2'-MPA %) it was 78%. In addition, in data set [5] (water/polyethylene glycol, 4° C., 2 Weeks, read-out: 2'-MPA %), the remaining at 336 h is 79%. For the same compound, the remaining at 6 h stood at 75% in data set [5] (water/polyethylene glycol, 4° C., 6 Hours, read-out: 2'-MPA %) and 78% in data set [5] (water/polyethylene glycol, Room Temperature, 6 Hours, read-out: 2'-MPA %). Also, the remaining at 18 h in data set [5] (water/polyethylene glycol, 4° C., 18 Hours, read-out: 2'-MPA %) came out at 73%; in data set [5] (water/polyethylene glycol, Room Temperature, 18 Hours, peaks of paclitaxel and unknown coeluted, read-out: 2'-MPA %), 69%. In addition, the remaining at 42 h was 79% in data set [5] (water/polyethylene glycol, 4° C., 42 Hours, read-out: 2'-MPA %) and 73% in data set [5] (water/polyethylene glycol, Room Temperature, 42 Hours, read-out: 2'-MPA %). Further, the remaining at 66 h was found to be 73% in data set [5] (water/polyethylene glycol, 4° C., 66 Hours, read-out: 2'-MPA %) and 79% in data set [5] (water/polyethylene glycol, Room Temperature, 66 Hours, read-out: 2'-MPA %). For the same compound, in data set [5] (water/polyethylene glycol, Room Temperature, 90 Hours, read-out: 2'-MPA %), the remaining at 90 h is 73%. In addition, the “stability on HPLC purification” value in data set [6] is reported as “decomposes rapidly”.
For `CC(=O)O[C@H]1C(=O)[C@@]2(C)[C@H]([C@H](OC(=O)c3ccccc3)[C@]3(O)C[C@H](OC(=O)[C@H](O)[C@@H](NC(=O)c4ccccc4)c4ccccc4)C(C)=C1C3(C)C)[C@]1(OC(C)=O)CO[C@@H]1C[C@@H]2O` [Paclitaxel, paclitaxel], the effectiveness in chemotherapy result in data set [7] is on record as “effective for chemotherapy for several types of neoplasms including breast”.
